Reference: US11072599B2, “Pyrazole compounds and uses thereof” (Yissum Research Development Company of the Hebrew …, priority 2017, dated 2021)

System: RKO colorectal cells
Assay: Dose-response compound screen in RKO cells (Western blot, indicators of CKIα inhibition)
Type: cell-based
Details: 16 hours at 37° C., 0.167-1.5 μM or 0.11-1 μM, ImageJ, 1 = mock (DMSO)-treated cells
Procedure: RKO cells were incubated for 16 hours at 37° C. with indicated concentrations of the compounds, or with the vehicle (DMSO) alone (−) and analyzed by Western Blot. Shown are Western Blot signals of β-catenin and p53 stabilization and phosphorylation of H2AX (γH2AX), a marker of DNA damage.
RKO colorectal cells were incubated with serial dilutions of each of the compounds (at a concentration range of 0.167-1.5 μM or 0.11-1 μM in DMSO) for 16 hours at 37° C. Cells were washed with PBS and cell pellets were incubated with ice cold protein lysis buffer containing protease inhibitor cocktail ( 1/200; Calbiochem) and phosphatase inhibitors (20 mM p-nitrophenyl phosphate (PNPP), 20 mM β-glycerophosphate and 300 nM okadaic acid). Western blot (WB) analysis was performed by means of standard techniques. Blots were incubated with antibodies detecting β-catenin ( 1/2,500; BD Transduction), p53 (DO-1&1801 hybridoma mix; dilution of 1:20 of supernatants from each), CKIα (C-19; 1/1,000; Santa Cruz Biotechnology) and phospho-histone H2AX (S139; 1/1,000; Millipore). Secondary antibodies were HRP-linked goat anti-mouse, goat anti-rabbit and rabbit anti-goat antibodies (all 1/10,000; Jackson). Blots were developed using ECL (GE Healthcare). Signal intensities corresponding to β-catenin and p53 stabilization and phosphorylation of H2AX (γH2AX—a marker of DNA damage)-indicators of CKIα inhibition (Elyada et al., Nature […]), were analyzed by the ImageJ software. Relative signal intensities are depicted in Table 1 (see also in FIG. 1), where values of 1 correspond to signals of mock (DMSO)-treated cells.

Structure (SMILES)	H2AX phosphorylation (γH2AX, relative signal intensity)	p53 stabilization (relative signal intensity)	β-Catenin stabilization (relative signal intensity)
Cc1ccnn1[C@H]1CC[C@H](Nc2ncc(Cl)c(-c3cnn(C)c3CC3CC3)n2)CC1 [A102]	1	1	4
Cn1ncc(-c2cc(N[C@H]3CC[C@H](N)CC3)ncc2Cl)c1CC1CC1 [A104, (1r,4r)-N1-(5-chloro-4-(5-(cyclopropylmethyl)-1-methyl-1H-pyrazol-4-yl)pyridin-2-yl)cyclohexane-1,4-diamine]	20	20	9
Cn1ncc(-c2cccc(N[C@H]3CC[C@H](N)CC3)n2)c1CC1CC1 [A105, (1r,4r)-N1-(6-(5-(cyclopropylmethyl)-1-methyl-1H-pyrazol-4-yl)pyridin-2-yl)cyclohexane-1,4-diamine]	1	2	5
Cn1ncc(-c2cc(N[C@H]3CC[C@H](N)CC3)ncn2)c1CC1CC1 [A106, (1r,4r)-N1-(6-(5-(cyclopropylmethyl)-1-methyl-1H-pyrazol-4-yl)pyrimidin-4-yl)cyclohexane-1,4-diamine]	1	1	9
Cn1ncc(-c2cc(N[C@H]3CC[C@H](N)CC3)nc(N)n2)c1CC1CC1 [A107, N4-((1r,4r)-4-aminocyclohexyl)-6-(5-(cyclopropylmethyl)-1-methyl-1H-pyrazol-4-yl)pyrimidine-2,4-diamine]	1	2	4
Cn1ncc(-c2cc(O)nc(N[C@H]3CC[C@H](N)CC3)n2)c1CC1CC1 [A108, 2-(((1r,4r)-4-aminocyclohexyl)amino)-6-(5-(cyclopropylmethyl)-1-methyl-1H-pyrazol-4-yl)pyrimidin-4-ol]	1	1	9
